# Where “and” joins values, the source holds several entries; their conditions need not be identical. Equal entries are not always repeated. Entries after “also recorded” stand apart in the source; their conditions may differ.
# Tests used:
# p53 level in H460 cells = experiment: p53 induction by immunoblotting (IB) in H460 cells; assay type: cell-based, human
# [1] = tested on: p53 level in HCT116^+/+ cells; experiment: p53 induction by immunoblotting (IB) in HCT116^+/+ cells; assay type: cell-based, human
# Procedure: (§1) EC90 values were calculated from the EC50 and Hill slope by a web-based calculator: http://www.graphpad.com/quickcalcs/Ecanything1.cfm.
# [2] = tested on: p53 level in H460 and HCT116^+/+ cells; experiment: p53 induction by immunoblotting (IB), statement does not separate the cell lines; assay type: cell-based, human; conditions: 18 hrs, 0.5, 2, 10 µM
# Text: (A–B) Initial Inauhzin analogs were purchased and tested the activity on H460 and HCT116^+/+ by immunoblotting (IB). […]
# H460 cells [3] = experiment: 3-day WST-8 cell growth inhibition assay, H460; assay type: cell-based, human; conditions: Homo sapiens, NCI-H460, calculated from EC50 and Hill slope (GraphPad web calculator); read-out: EC90, cell growth inhibition, H460 p53 wild type
# Procedure: as §1
# HCT116^+/+ cells = experiment: 3-day WST-8 cell growth inhibition assay, HCT116^+/+; assay type: cell-based, human; conditions: for EC90 / EC50: Homo sapiens; for EC90: HCT-116, calculated from EC50 and Hill slope, read-out: EC90, cell growth inhibition, HCT116^+/+ p53 wild type; for EC50: HCT-116, 72 h WST-8, average of triplicates, highest concentration 50 µM, read-out: EC50, cell growth inhibition, HCT116^+/+ p53 wild type
# Procedure: as §1
# H460 cells [4] = experiment: 3-day WST-8 cell growth inhibition assay, H460; assay type: cell-based, human; conditions: for EC50: Homo sapiens, NCI-H460, 72 h WST-8, average of triplicates, highest concentration 50 µM, read-out: EC50, cell growth inhibition, H460 p53 wild type
# H1299 cells = experiment: 3-day WST-8 cell growth inhibition assay, H1299 (p53 null); assay type: cell-based, human
# Procedure: as §1
# HCT116^−/− cells [5] = experiment: 3-day WST-8 cell growth inhibition assay, HCT116^−/− (p53 null); assay type: cell-based; conditions: Homo sapiens, HCT-116, calculated from EC50 and Hill slope
# Procedure: as §1
# WI-38 cells = experiment: WST-8 cytotoxicity assay on normal fibroblasts WI-38; assay type: cell-based, human
# Procedure: as §1
# HCT116^−/− cells [6] = experiment: 3-day WST-8 cell growth inhibition assay, HCT116^−/− (p53 null); assay type: cell-based, human
# [7] = 2 µM, 18 hrs, IB normalized to GAPDH, compared to 2 µM INZ
EC90 (H460 cells [3]) [µM],EC90 (HCT116^+/+ cells) [µM],EC50 (HCT116^+/+ cells) [µM],EC50 (H460 cells [4]) [µM],"EC90 (H1299 cells; Homo sapiens, NCI-H1299, calculated from EC50 and Hill slope) [µM]","EC50 (H1299 cells; Homo sapiens, NCI-H1299, 72 h WST-8, average of triplicates, highest concentration 100 µM) [µM]",EC50 on H1299 fold higher than on H460 cells (H1299 cells; p53-null H1299 vs p53-containing H460),EC90 (HCT116^−/− cells [5]) [µM],"EC50 (HCT116^−/− cells [6]; Homo sapiens, HCT-116, 72 h WST-8, average of triplicates, highest concentration 100 µM) [µM]",SMILES,p53 induction in H460 cells (p53 level in H460 cells; [7]) [%],"p53 induction in HCT116^+/+ cells [1, 7] [%]",p53 induction / activation by synthetic analogs [2],"p53 induction / activation in H460 cells (p53 level in H460 cells; IB, 18 hrs, 0.5, 2, 10 µM)","p53 induction / activation in HCT116^+/+ cells ([1]; IB, 18 hrs, 0.5, 2, 10 µM, p53 acetylation (lys382), p53 level, MDM2)",fold higher potency than INZ in growth inhibition of HCT116^+/+ cells (HCT116^+/+ cells; EC50 compared with INZ),effect on p53-null H1299 cells compared with p53-containing cells (H1299 cells; in vitro cytotoxicity),"EC50 (WI-38 cells; Homo sapiens, WI-38, highest concentration tested 50 µM, n.d. = not be able to be determined, read-out: EC50, normal cells WI-38 p53 wild type) [µM]","toxicity to normal human WI-38 cells (WI-38 cells; normal human fibroblasts, p53-containing)",fold higher potency than INZ in growth inhibition of H460 cells (H460 cells [4]; EC50 compared with INZ),effect on p53-null HCT116^−/− cells compared with p53-containing cells (HCT116^−/− cells [6]; in vitro cytotoxicity)
,,,,,,,,,"CCC(Sc1nnc2c(n1)[nH]c1ccccc12)C(=O)N1c2ccccc2Sc2ccc(OC)cc21 (stereo not shown) [Compound 7, 2-((5H-[1,2,4]triazino[5,6-b]indol-3-yl)thio)-1-(2-methoxy-10H-phenothiazin-10-yl)butan-1-one]",< 50,< 50,remained active in p53 induction,,,,,,,,
7.5,18.3,2.5 ± 0.6,2.9 ± 0.2,,,,,,"CCC(Sc1nnc2c3ccccc3n(C(=O)CCCCC3CC4NC(=O)NC4S3)c2n1)C(=O)N1c2ccccc2Sc2ccccc21 (stereo not shown) [Compound 20, 5-(5-oxo-5-(3-((1-oxo-1-(10H-phenothiazin-10-yl)butan-2-yl)thio)-5H-[1,2,4]triazino[5,6-b]indol-5-yl)pentyl)tetrahydro-1H-thieno[2,3-d]imidazole-2(5H)-one]",,,,as effective as INZ,as effective as INZ,,,,,,
3.6,5,0.5,0.7,58.9,11.2,3–15 fold,91.7,12.8 ± 1.7,"CCC(Sc1nnc2c3ccccc3n(CCO)c2n1)C(=O)N1c2ccccc2Cc2ccccc21 (stereo not shown) [Compound 37, 1-(acridin-10(9H)-yl)-2-((5-(2-hydroxyethyl)-5H-[1,2,4]triazino[5,6-b]indol-3-yl)thio)butan-1-one]",,,much better potency than INZ; also recorded: more potent in p53 activation than their parental compound INZ,,,5 fold and 5- to 10 fold,much less effect; also recorded: much less effective,> 50,no toxicity,10 fold and 5- to 10 fold,much less effect; also recorded: much less effective

# From article PMC3480348, “Structure and Activity Analysis of Inauhzin Analogs as Novel Antitumor Compounds That Induce p53 and Inhibit Cell Growth” (PLoS ONE, 2012)
